Experimental data from patent US20050192347A1, “Urea and thiourea compounds and compositions for cholesterol management and related uses” (priority 2003, published 2005).

What was measured:
obese female Zucker rats = experiment: Oral daily treatment of obese female Zucker rats for fourteen days: serum lipids, glycemic control indicators, body weight; format: in vivo, rat; settings: 14 days; for Glucose, Percent Change from Pre-treatment: blood, 6-hour fast; for Glucose, Percent Change from Pre-treatment / BHA, Percent Change from Pre-treatment / NEFA, Percent Change from Pre-treatment / HDL-C/nonHDL-C / HDL-C, Percent Change from Pre-treatment / Insulin, Percent Change from Pre-treatment / Non HDL-C, Percent Change from Pre-treatment / TC, Percent Change from Pre-treatment / TG, Percent Change from Pre-treatment: oral; for % wt. gain: oral gavage; for BHA, Percent Change from Pre-treatment: serum beta hydroxy butyric acid; for NEFA, Percent Change from Pre-treatment: serum non-esterified fatty acids; for HDL-C/nonHDL-C: serum ratio; for HDL-C, Percent Change from Pre-treatment / Insulin, Percent Change from Pre-treatment / Non HDL-C, Percent Change from Pre-treatment / TC, Percent Change from Pre-treatment / TG, Percent Change from Pre-treatment: serum
Protocol: In a number of different experiments, illustrative compounds A and A1 of the invention were administered daily at a dose of up to 100 mg/kg to chow-fed obese female Zucker rats for fourteen days in the morning by oral gavage in 1.5% carboxymethylcellulose/0.2% Tween-20 or 20% ethanol/80% polyethylene glycol (dosing vehicles). Animals were weighed daily. Animals were allowed free access to rodent chow and water throughout the study except on days of blood sampling where food was restricted for six hours prior to blood sampling. Blood glucose was determined after the 6-hour fast in the afternoon without anesthesia from a tail vein. Serum was also prepared from pretreatment blood samples subsequently obtained from the orbital venous plexus (with O2/CO2 anesthesia) and following the fourteenth dose at sacrifice from the heart following O2/CO2 anesthesia. Serums were assayed for lipoprotein cholesterol profiles, triglycerides, total cholesterol, NonHDL cholesterol, HDL cholesterol, the ratio of HDL cholesterol to that of Non-HDL cholesterol, insulin, non-esterified fatty acids, and beta hydroxy butyric acid. The percent body weight gain and the ratio of liver to body weight was also determined. These are shown as absolute values or as a percent change of the pretreatment values in Table 4. [drawing 300]

primary rat hepatocytes = experiment: Inhibition of lipid synthesis ([1-14C]-acetate incorporation) in primary cultures of rat hepatocytes; format: cell-based; settings: 0-300 μM
Protocol: Compounds were tested for inhibition of lipid synthesis in primary cultures of rat hepatocytes. Male Sprague-Dawley rats were anesthetized with intraperitoneal injection of sodium pentobarbital (80 mg/kg). Rat hepatocytes were isolated essentially as described by the method of Seglen (Seglen, P. O. Hepatocyte suspensions and cultures as tools in experimental carcinogenesis. J. Toxicol. Environ. Health 1979, 5, 551-560). Hepatocytes were suspended in Dulbecco's Modified Eagles Medium containing 25 mM D-glucose, 14 mM HEPES, 5 mM L-glutamine, 5 mM leucine, 5 mM alanine, 10 mM lactate, 1 mM pyruvate, 0.2% bovine serum albumin, 17.4 mM non-essential amino acids, 20% fetal bovine serum, 100 nM insulin and 20 μg/mL gentamycin) and plated at a density of 1.5×10^5 cells/cm^2 on collagen-coated 96-well plates. Four hours after plating, media was replaced with the same media without serum. Cells were grown overnight to allow formation of monolayer cultures. Lipid synthesis incubation conditions were initially assessed to ensure the linearity of [1-^14C]-acetate incorporation into hepatocyte lipids for up to 4 hours. Hepatocyte lipid synthesis inhibitory activity was assessed during incubations in the presence of 0.25 μCi [1-^14C]-acetate/well (final radiospecific activity in assay is 1 Ci/mol) and 0, 1, 3, 10, 30, 100 or 300 μM of compounds for 4 hours. At the end of the 4-hour incubation period, medium was discarded and cells were washed twice with ice-cold phosphate buffered saline and stored frozen prior to analysis. To determine total lipid synthesis, 170 μl of MicroScint-E® and 50 μl water was added to each well to extract and partition the lipid soluble products to the upper organic phase containing the scintillant. Lipid radioactivity was assessed by scintillation spectroscopy in a Packard TopCount NXT.

[1] = Rattus norvegicus, Hepatocyte, 4 h

## CC(C)(CO)CCCCNC(=O)NCCCCC(C)(C)CO [A, 1,3-bis-(6-hydroxy-5,5-dimethyl-hexyl)-urea]
Obese female Zucker rats; 100 mg/kg/day
  Glucose, Percent Change from Pre-treatment: 2%
  % wt. gain: 4%
  BHA, Percent Change from Pre-treatment: 172%
  NEFA, Percent Change from Pre-treatment: 8%
  HDL-C/nonHDL-C: 2.7
  HDL-C, Percent Change from Pre-treatment: 92%
  Insulin, Percent Change from Pre-treatment: 60%
  Non HDL-C, Percent Change from Pre-treatment: −5%
  TC, Percent Change from Pre-treatment: 50%
  TG, Percent Change from Pre-treatment: −31%

## CC(C)(CO)CCCCNC(=O)NCCCC(C)(C)CO [Compound 213, 1-(5-Hydroxy-4,4-dimethylpentyl)-3-(6-hydroxy-5,5-dimethylhexyl)urea]
Primary rat hepatocytes; [1]
  IC50: 34 µM

## CC(C)(CO)CCCCNC(=O)NCCCc1ccccc1 [Compound 216, 1-(6-Hydroxy-5,5-dimethylhexyl)-3-(3-phenylpropyl)urea]
Primary rat hepatocytes; [1]
  IC50: 51 µM

## CC(C)(CO)CCCCNC(=O)NCCCCc1ccccc1 [Compound 217, 1-(6-Hydroxy-5,5-dimethylhexyl)-3-(4-phenylbutyl)urea]
Primary rat hepatocytes; [1]
  IC50: 221 µM

## CCOC(=O)CCCCCNC(=O)NCCCCC(C)(C)CO [Compound 219, Ethyl 6-(3-(6-hydroxy-5,5-dimethylhexyl)ureido)hexanoate]
Primary rat hepatocytes; [1]
  IC50: 82 µM

## CC(C)(CO)CCCCNC(=O)NCCCCC(C)(CO)c1ccccc1 (centres unmarked) [Compound 220, 1-(6-Hydroxy-5,5-dimethylhexyl)-3-(6-hydroxy-5-methyl-5-phenylhexyl)urea]
Primary rat hepatocytes; [1]
  IC50: 8.8 µM

## CC(CO)(CCCCNC(=O)NCCc1ccccc1)c1ccccc1 (centres unmarked) [Compound 222, 1-(6-Hydroxy-5-methyl-5-phenylhexyl)-3-phenethylurea]
Primary rat hepatocytes; [1]
  IC50: 264 µM

## CC(CO)(CCCCNC(=O)NCCCc1ccccc1)c1ccccc1 (centres unmarked) [Compound 223, 1-(6-Hydroxy-5-methyl-5-phenylhexyl)-3-(3-phenylpropyl)urea]
Primary rat hepatocytes; 4 hours
  IC50: 77 µM
Primary rat hepatocytes; [1]
  IC50: 137 µM

## CCOC(=O)CCCCCNC(=O)NCCCCC(C)(CO)c1ccccc1 (centres unmarked) [Compound 225, Ethyl 6-(3-(6-hydroxy-5-methyl-5-phenylhexyl)ureido)hexanoate]
Primary rat hepatocytes; [1]
  IC50: 128 µM

## CC(CO)(CCCCCNC(=O)NCCCCC(C)(CO)c1ccccc1)c1ccccc1 (centres unmarked) [Compound 226, 1-(6-Hydroxy-5-methyl-5-phenylhexyl)-3-(7-hydroxy-6-methyl-6-phenylheptyl)urea]
Primary rat hepatocytes; [1]
  IC50: 88 µM

## CC(CO)(CCCCCNC(=O)NCCc1ccccc1)c1ccccc1 (centres unmarked) [Compound 227, 1-(7-Hydroxy-6-methyl-6-phenylheptyl)-3-phenethylurea]
Primary rat hepatocytes; [1]
  IC50: 223 µM

## CC(CO)(CCCCCNC(=O)NCCCc1ccccc1)c1ccccc1 (centres unmarked) [Compound 228, 1-(7-hydroxy-6-methyl-6-phenylheptyl)-3-(3-phenylpropyl)urea]
Primary rat hepatocytes; [1]
  IC50: 101 µM

## COC(=O)CCCNC(=O)NCCCCCC(C)(CO)c1ccccc1 (centres unmarked) [Compound 230]
Primary rat hepatocytes; [1]
  IC50: 103 µM

## CC(CO)(CCCCCNC(=O)NCCCCCC(C)(CO)c1ccccc1)c1ccccc1 (centres unmarked) [Compound 231, 1,3-Bis(7-hydroxy-6-methyl-6-phenylheptyl)urea]
Primary rat hepatocytes; [1]
  IC50: 39 µM

## CC(C)(CO)CCCCNC(=S)NCCCCC(C)(C)CO [Compound A1, 1,3-bis-(6-hydroxy-5,5-dimethylhexyl)-thiourea]
Obese female Zucker rats; 30 mg/kg/day
  Glucose, Percent Change from Pre-treatment: −4%
  % wt. gain: 10%
  BHA, Percent Change from Pre-treatment: 283%
  NEFA, Percent Change from Pre-treatment: 11%
  HDL-C/nonHDL-C: 2.0
  HDL-C, Percent Change from Pre-treatment: −11%
  Insulin, Percent Change from Pre-treatment: −29%
  Non HDL-C, Percent Change from Pre-treatment: 32%
  TC, Percent Change from Pre-treatment: −9%
  TG, Percent Change from Pre-treatment: 7%
Obese female Zucker rats; 100 mg/kg/day
  Glucose, Percent Change from Pre-treatment: −15%
  % wt. gain: 7%
  BHA, Percent Change from Pre-treatment: 305%
  NEFA, Percent Change from Pre-treatment: 34%
  HDL-C/nonHDL-C: 1.3
  HDL-C, Percent Change from Pre-treatment: 2%
  Insulin, Percent Change from Pre-treatment: 10%
  Non HDL-C, Percent Change from Pre-treatment: −29%
  TC, Percent Change from Pre-treatment: −7%
  TG, Percent Change from Pre-treatment: −15%
